Experimental findings from article PMC3146814, “The crystal structure of alanine racemase from Streptococcus pneumoniae, a target for structure-based drug design” (BMC Microbiology, 2011) are described below.

Series [1] concerns the target T1, alanine racemase from S. pneumoniae (AlrSP) (Streptococcus pneumoniae, UniProt P0A2W8).
T1 construct: gene alr; untagged as far as told, gene in pET17, E. coli BL21(DE3) pLysS; monomer residues 1-367; homodimer; Lys129 carbamylated
T1 sequence (P0A2W8 1-367): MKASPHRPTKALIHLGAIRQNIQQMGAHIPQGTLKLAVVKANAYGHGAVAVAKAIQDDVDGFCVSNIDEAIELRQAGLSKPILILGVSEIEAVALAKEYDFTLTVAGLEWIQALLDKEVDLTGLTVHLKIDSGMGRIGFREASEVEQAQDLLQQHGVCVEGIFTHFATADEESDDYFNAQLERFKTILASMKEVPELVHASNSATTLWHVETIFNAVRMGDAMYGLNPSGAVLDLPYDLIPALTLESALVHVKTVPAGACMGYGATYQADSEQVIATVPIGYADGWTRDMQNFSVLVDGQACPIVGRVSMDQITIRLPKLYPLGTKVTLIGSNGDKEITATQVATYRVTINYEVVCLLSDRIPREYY
The experiment in a line: X-ray crystallography, […] Å. Type of series: binding. To be noted: covalent; internal aldimine with Lys40 (LLP residue); active site; crystals grown at pH 7.2, 4 °C.

Series [2] deals with the molecule itself. The experiment in a line: crystal structure; sitting drop vapor diffusion at 4°C, 1.2 M Na citrate, 0.1 M MES pH 7.2, 10% glycerol, protein 23 mg/ml; space group P3(1)21, two monomers in the asymmetric unit; 2.0 Å.

Turning to `Cc1ncc(COP(=O)(O)O)c(C=O)c1O` [pyridoxal phosphate (PLP)], the “X-ray crystallography, 2.0 Å” value in series [1] is on record as “The pyridoxal phosphate (PLP) cofactor is connected to Lys40 through an internal aldimine bond”.

B1: alanine racemase from Streptococcus pneumoniae (enzyme, UniProt P0A2W8 1-367, looked up)
chain: T1 sequence (P0A2W8 1-367)
modifications: PLP covalently bound to Lys40 by an internal aldimine bond (N'-pyridoxyl-lysine-5'-monophosphate, LLP); carbamylated Lys129
notes: alanine racemase (E.C. 5.1.1.1) of Streptococcus pneumoniae; the gene was cloned into pET17; the model holds residues 1-367 of each monomer (734 residues, 100%): alpha/beta barrel domain 1-238 and beta-strand domain 239-367; no tag is named; also called AlrSP; Alr
The term stoichiometry N denotes a count of units in the complex or per binding partner. Turning to B1, in series [2], the “stoichiometry N” value is 2.
